Results from patent US12351570B2 (MERCK PATENT GMBH, priority 2018, dated 2025).

What follows are molecules tested on MDA-MB-231 cells (assay: Extracellular lactate production inhibition after 4 h, MDA-MB-231). Conditions: Homo sapiens, MDA-MB-231.

Row | Compound | IC50
1 | Cc1ccc2cccnc2c1S(=O)(=O)Nc1ccccc1C#Cc1ccc(C(=O)OCCCCN(C)C)nc1 [Compound 407, 4-(dimethylamino)butyl 5-{2-[2-(7-methylquinoline-8-sulfonamido)phenyl]ethyny}pyridine-2-carboxylate] | 1 to 100 µM
2 | COc1cc(C(=O)OCC(O)CO)ncc1C#Cc1ccccc1NS(=O)(=O)c1c(C)ccc2cccnc12 (centres unmarked) [Compound 408, 2,3-dihydroxypropyl 4-methoxy-5-{2-[2-(7-methylquinoline-8-sulfonamido)phenyl]ethynyl}pyridine-2-carboxylate] | 0.01 to 0.1 µM
3 | Cc1ccc2cccnc2c1S(=O)(=O)Nc1ccccc1C#Cc1ccc(C(=O)OCCOCCO)nc1 [Compound 409, 2-(2-hydroxyethoxy)ethyl 5-{2-[2-(7-methylquinoline-8-sulfonamido)phenyl]ethynyl}pyridine-2-carboxylate] | 0.1 to 1 µM
4 | COCCOC(=O)c1ccc(C#Cc2ccccc2NS(=O)(=O)c2c(C)ccc3cccnc23)cn1 [Compound 410, 2-methoxyethyl 5-{2-[2-(7-methylquinoline-8-sulfonamido)phenyl]ethynyl}pyridine-2-carboxylate] | 0.1 to 1 µM
5 | CCCc1ccc(S(=O)(=O)Nc2ccccc2C#Cc2ccc(C(=O)O)nc2)c2ncccc12 [Compound 414, 5-{2-[2-(5-propylquinoline-8-sulfonamido)phenyl]ethynyl}pyridine-2-carboxylic acid] | 0.01 to 0.1 µM
6 | Cc1ccc2cccnc2c1S(=O)(=O)Nc1ccccc1C#Cc1cnc(C(=O)O)c2c1NCCN2 [Compound 415, 8-{2-[2-(7-methylquinoline-8-sulfonamido)phenyl]ethynyl}-1H,2H,3H,4H-pyrido[3,4-b]pyrazine-5-carboxylic acid] | 0.1 to 1 µM
7 | Cc1ccc2cccnc2c1S(=O)(=O)Nc1ccc(C(C)C)cc1C#Cc1ccc(C(=O)O)nc1 [Compound 416, 5-{2-[2-(7-methylquinoline-8-sulfonamido)-5-(propan-2-yl)phenyl]ethynyl}pyridine-2-carboxylic acid] | 0.1 to 1 µM
8 | COc1cc(C(=O)O)ncc1C#Cc1ccccc1NS(=O)(=O)c1cccc2c(N(C)C)ccnc12 [Compound 418, 5-[2-(4-Dimethylamino-quinoline-8-sulfonylamino)-phenylethynyl]-4-methoxy-pyridine-2-carboxylic acid] | 0.1 to 1 µM
9 | CNc1ccnc2c(S(=O)(=O)Nc3ccccc3C#Cc3cnc(C(=O)O)cc3OC)cccc12 [Compound 419, 4-Methoxy-5-[2-(4-methylamino-quinoline-8-sulfonylamino)-phenylethynyl]-pyridine-2-carboxylic acid] | 1 to 100 µM
10 | Cc1cc(C(=O)O)ncc1C#Cc1ccccc1NS(=O)(=O)c1cccc2c(N(C)C)ccnc12 [Compound 421, 5-[2-(4-Dimethylamino-quinoline-8-sulfonylamino)-phenylethynyl]-4-methyl-pyridine-2-carboxylic acid] | 0.1 to 1 µM
11 | O=C(O)c1ccc(C#Cc2ccccc2NS(=O)(=O)c2cccc3c(N4CCOCC4)ccnc23)cn1 [Compound 422, 5-[2-(4-Morpholin-4-yl-quinoline-8-sulfonylamino)-phenylethynyl]-pyridine-2-carboxylic acid] | 1 to 100 µM
12 | CS(=O)(=Nc1ccccc1C#Cc1ccc(C(=O)O)nc1)c1ccccc1 (centres unmarked) [Compound 424, 5-[2-(2-{[methyl(oxo)phenyl-λ6-sulfanylidene]amino}phenyl)ethynyl] pyridine-2-carboxylic acid] | 1 to 100 µM
13 | CNc1ccnc2c(S(=O)(=O)Nc3ccccc3C#Cc3cnc(C(=O)O)cc3C)cccc12 [Compound 425, 4-Methyl-5-[2-(4-methylamino-quinoline-8-sulfonylamino)-phenylethynyl]-pyridine-2-carboxylic acid] | 1 to 100 µM
14 | CCNc1ccnc2c(S(=O)(=O)Nc3ccccc3C#Cc3ccc(C(=O)O)nc3)cccc12 [Compound 426, 5-[2-(4-Ethylamino-quinoline-8-sulfonylamino)-phenylethynyl]-pyridine-2-carboxylic acid] | 1 to 100 µM
15 | CC(C)Nc1ccnc2c(S(=O)(=O)Nc3ccccc3C#Cc3ccc(C(=O)O)nc3)cccc12 [Compound 427, 5-[2-(4-Isopropylamino-quinoline-8-sulfonylamino)-phenylethynyl]-pyridine-2-carboxylic acid] | 1 to 100 µM
16 | COc1ccc(S(C)(=O)=Nc2ccccc2C#Cc2ccc(C(=O)O)nc2)cc1 (centres unmarked) [Compound 428, 5-[2-(2-{[(4-methoxyphenyl)(methyl)oxo-λ6-sulfanylidene]amino}phenyl)ethynyl] pyridine-2-carboxylic acid] | 1 to 100 µM
17 | COc1ccc(NS(=O)(=O)c2ccccc2C#Cc2ccc(C(=O)O)nc2)c(C)c1C [Compound 430, 5-(2-{2-[(4-methoxy-2,3-dimethylphenyl)sulfamoyl]phenyl}ethynyl)pyridine-2-carboxylic acid] | 1 to 100 µM

Continued, values first:

Row | IC50 | Compound
18 | 0.01 to 0.1 µM | COc1cc(C(=O)OCC2COC(C)(C)O2)ncc1C#Cc1ccccc1NS(=O)(=O)c1c(C)ccc2cccnc12 (centres unmarked) [Compound 406, (2,2-dimethyl-1,3-dioxolan-4-yl)methyl 4-methoxy-5-{2-[2-(7-methylquinoline-8-sulfonamido)phenyl]ethynyl}pyridine-2-carboxylate]
19 | 0.1 to 1 µM | CCc1ccc(S(=O)(=O)Nc2ccccc2C#Cc2ccc(C(=O)O)nc2)c2ncccc12 [Compound 411, 5-{2-[2-(5-ethylquinoline-8-sulfonamido)phenyl]ethynyl}pyridine-2-carboxylic acid]
20 | 0.01 to 0.1 µM | COCCOC(=O)c1cc(OC)c(C#Cc2ccccc2NS(=O)(=O)c2c(C)ccc3cccnc23)cn1 [Compound 412, 2-methoxyethyl 4-methoxy-5-{2-[2-(7-methylquinoline-8-sulfonamido)phenyl]ethynyl}pyridine-2-carboxylate]
21 | 0.01 to 0.1 µM | COc1ccc(S(=O)(=O)Nc2ccc(C)cc2C#Cc2ccc(C(=O)O)nc2)c(C)c1C [Compound 413, 5-{2-[2-(4-methoxy-2,3-dimethylbenzenesulfonamido)-5-methylphenyl]ethynyl}pyridine-2-carboxylic acid]
22 | 0.001 to 0.01 µM | CCc1ccc(NS(=O)(=O)c2c(C)ccc3cccnc23)c(C#Cc2ccc(C(=O)O)nc2)c1 [Compound 417, 5-{2-[5-ethyl-2-(7-methylquinoline-8-sulfonamido)phenyl]ethynyl}pyridine-2-carboxylic acid]
23 | 1 to 100 µM | CN(C)c1ccnc2c(S(=O)(=O)Nc3ccccc3C#Cc3ccc(C(=O)O)nc3)cccc12 [Compound 420, 5-[2-(4-Dimethylamino-quinoline-8-sulfonylamino)-phenylethynyl]-pyridine-2-carboxylic acid]
24 | 1 to 100 µM | CNc1ccnc2c(S(=O)(=O)Nc3ccccc3C#Cc3ccc(C(=O)O)nc3)cccc12 [Compound 423, 5-[2-(4-Methylamino-quinoline-8-sulfonylamino)-phenylethynyl]-pyridine-2-carboxylic acid]
25 | 1 to 100 µM | CS(=O)(=Nc1ccccc1C#Cc1ccc(C(=O)O)nc1)c1cccc2cccnc12 (centres unmarked) [Compound 429, 5-[2-(2-{[methyl(oxo)(quinolin-8-yl)-λ6-sulfanylidene]amino}phenyl)ethynyl] pyridine-2-carboxylic acid]
26 | 1 to 100 µM | CS(=O)(=Nc1ccccc1C#Cc1ccc(C(=O)O)nc1)c1ccc(F)cc1 (centres unmarked) [Compound 431, 5-[2-(2-{[(4-fluorophenyl)(methyl)oxo-λ6-sulfanylidene]amino}phenyl)ethynyl] pyridine-2-carboxylic acid]
